Test results reported in patent publication US9796742B2, “Kinase inhibitors” (Respivert Limited, priority 2012, dated 2017).
Read-outs that look alike come from different tables or passages of the source.

Experiments:
p38 MAPKα = p38 MAPKα (Homo sapiens (Human), UniProt Q16539); experiment: p38 MAPKα enzyme inhibition (FRET, Z-LYTE; Method 2); format: biochemical
Experimental: (§1) The enzyme inhibitory activities of compounds disclosed herein are determined by FRET using synthetic peptides labelled with both donor and acceptor fluorophores (Z-LYTE, Invitrogen Ltd., Paisley, UK).
The inhibitory activities of test compounds against the p38 MAPKα isoform (MAPK14: Invitrogen), are evaluated indirectly by determining the level of activation/phosphorylation of the down-stream molecule, MAPKAP-K2. The p38 MAPKα protein (80 ng/mL, 2.5 μL) is mixed with the test compound (2.5 μL of either 4 μg/mL, 0.4 μg/mL, 0.04 μg/mL or 0.004 μg/mL) for 2 hr at RT. […] The mixture is incubated for 1 hr at RT. Development reagent (protease, 5 μL) is added for 1 hr prior to detection in a fluorescence microplate reader (Varioskan® Flash, ThermoFisher Scientific).
Method 2 This method follows the same steps as Method 1 above, but utilises a higher concentration of the p38 MAPKα protein (2.5 μL of 200 ng/mL protein instead of 2.5 μL of 80 ng/mL protein) for mixing with the test compound.
(§2) In all cases, the site-specific protease cleaves non-phosphorylated peptide only and eliminates the FRET signal. Phosphorylation levels of each reaction are calculated using the ratio of coumarin emission (donor) over fluorescein emission (acceptor), for which high ratios indicate high phosphorylation and low ratios indicate low phosphorylation levels. The percentage inhibition of each reaction is calculated relative to non-inhibited control and the 50% inhibitory concentration (IC50 value) is then calculated from the concentration-response curve.

c-Src = c-Src (Homo sapiens (Human), UniProt P12931); experiment: c-Src enzyme inhibition (FRET, Z-LYTE); format: biochemical
Experimental: as §1
(§3) The inhibitory activities of compounds of the invention against c-Src and Syk enzymes (Invitrogen), are evaluated in a similar fashion to that described hereinabove. The relevant enzyme (3000 ng/mL or 2000 ng/mL respectively, 2.5 μL) is incubated with the test compound (either 4 μg/mL, 0.4 μg/mL, 0.04 μg/mL, or 0.004 μg/mL, 2.5 μL each) for 2 hr at RT. The FRET peptides (8 μM. 2.5 μL), and appropriate ATP solutions (2.5 μL, 800 μM for c-Src, and 60 μM ATP for Syk) are then added to the enzymes/compound mixtures and incubated for 1 hr. Development reagent (protease, 5 μL) is added for 1 hr prior to detection in a fluorescence microplate reader (Varioskan® Flash, ThermoFisher Scientific).
as §2

d-U937 cells = experiment: LPS-induced TNFα/IL-8 release in d-U937 cells; format: cell-based; conditions: Homo sapiens, dU937, LPS-stimulated d-U937 cells
Experimental: U937 cells, a human monocytic cell line, are differentiated to macrophage-type cells by incubation with phorbol myristate acetate (PMA; 100 ng/mL) for 48 to 72 hr. Cells are pre-incubated with final concentrations of test compound for 2 hr and are then stimulated with 0.1 μg/mL of LPS (from E. Coli: O111:B4, Sigma) for 4 hr. The supernatant is collected for determination of TNFα and IL-8 concentrations by sandwich ELISA (Duo-set, R&D systems). The inhibition of TNFα production is calculated as a percentage of that achieved by 10 μg/mL of BIRB796 at each concentration of test compound by comparison against vehicle control. The relative 50% effective concentration (REC50) is determined from the resultant concentration-response curve. The inhibition of IL-8 production is calculated at each concentration of test compound by comparison with vehicle control. The 50% inhibitory concentration (IC50) is determined from the resultant concentration-response curve.

GSK3α = GSK3α (Homo sapiens (Human), UniProt P49840); experiment: GSK 3α enzyme inhibition (FRET, Z-LYTE; Method 2); format: biochemical
Summary of the method: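 GSK3-α protein preincubated with compound for 105 min, then Z-LYTE FRET peptide and ATP added for 1 h before protease development for 1 h. Phosphorylation taken from coumarin/fluorescein emission ratio; percent inhibition against uninhibited control and IC50 calculated from concentration-response curves.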

PBMCs [1] = experiment: LPS-induced TNFα/IL-8 release in PBMC cells; format: cell-based; conditions: Homo sapiens, LPS-stimulated PBMCs
Summary of the method: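 Human PBMCs from healthy donors, isolated by density gradient, were pretreated with compound for 2 h and then stimulated with 1 ng/mL LPS (E. coli 0111:B4) for 24 h at 37° C, 5% CO2. Supernatant IL-8 and TNFα were measured by sandwich ELISA, and IC50 was taken from the dose-response curve.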

Syk = Syk (Homo sapiens (Human), UniProt P43405); experiment: Syk enzyme inhibition (FRET, Z-LYTE); format: biochemical
Experimental: as §1, §3, §2

PBMCs [2] = experiment: IL-2 and IFN gamma release in CD3/CD28 stimulated PBMC cells; format: cell-based; conditions: Homo sapiens
Experimental: PBMCs from healthy subjects are separated from whole blood using a density gradient (Lymphoprep, Axis-Shield Healthcare). Cells are added to a 96 well plate pre-coated with a mixture of CD3/[…] monoclonal antibodies (0.3 μg/mL eBioscience and 3 μg/mL BD Pharmingen respectively). Compound at the desired concentration is then added to the wells and the plate left for 3 days under normal tissue culture conditions. Supernatants are harvested and IL-2 and IFN gamma release determined by Sandwich ELISA (Duo-set, R&D System). The IC50 is determined from the dose response curve.

HT29 cells = experiment: IL-1β-induced IL-8 release in HT29 cells; format: cell-based; conditions: Homo sapiens, HT-29, IL-1β-stimulated HT29 cells, read-out: IC50 Values for Inhibition of Cytokine Release, HT29 cells IL-8
Experimental: HT29 cells, a human colon adenocarcinorna cell line, are plated in a 96 well plate (24 hrs) and pre-treated with compounds at the desired concentration for 2 hours before addition of 5 ng/mL of IL-1β (Abcam) for 24 hours. Supernatants are harvested for IL-8 quantification by Sandwich ELISA (Duo-set, R&D System). The IC50 is determined from the dose response curve.

[3] = IL-8, read-out: IC50 Values for Inhibition of Cytokine Release, dU937 cells IL-8
[4] = TNFα (REC50 relative to BIRB796 per method), read-out: IC50 Values for Inhibition of Cytokine Release, dU937 cells TNFα
[5] = IL-8, read-out: IC50 Values for Inhibition of Cytokine Release, PBMCs IL-8
[6] = TNFα, read-out: IC50 Values for Inhibition of Cytokine Release, PBMCs TNFα
[7] = IL-2, read-out: IC50 Values for Inhibition of Cytokine Release, PBMCs IL-2
[8] = IFNγ, read-out: IC50 Values for Inhibition of Cytokine Release, PBMCs IFNγ

GSK3α, sequence (P49840 whole entry): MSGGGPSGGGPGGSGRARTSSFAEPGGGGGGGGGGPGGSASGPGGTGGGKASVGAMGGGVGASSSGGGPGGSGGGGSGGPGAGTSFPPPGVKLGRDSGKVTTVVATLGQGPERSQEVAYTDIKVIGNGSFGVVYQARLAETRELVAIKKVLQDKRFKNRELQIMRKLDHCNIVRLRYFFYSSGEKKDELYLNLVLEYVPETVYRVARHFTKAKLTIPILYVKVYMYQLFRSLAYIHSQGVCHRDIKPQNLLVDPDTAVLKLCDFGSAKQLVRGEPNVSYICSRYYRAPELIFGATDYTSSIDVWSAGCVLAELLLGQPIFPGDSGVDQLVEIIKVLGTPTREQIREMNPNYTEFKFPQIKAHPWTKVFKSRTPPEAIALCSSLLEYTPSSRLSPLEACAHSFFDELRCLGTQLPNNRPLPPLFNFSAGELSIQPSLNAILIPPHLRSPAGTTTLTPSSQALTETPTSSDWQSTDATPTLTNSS
c-Src, sequence (P12931 whole entry, looked up): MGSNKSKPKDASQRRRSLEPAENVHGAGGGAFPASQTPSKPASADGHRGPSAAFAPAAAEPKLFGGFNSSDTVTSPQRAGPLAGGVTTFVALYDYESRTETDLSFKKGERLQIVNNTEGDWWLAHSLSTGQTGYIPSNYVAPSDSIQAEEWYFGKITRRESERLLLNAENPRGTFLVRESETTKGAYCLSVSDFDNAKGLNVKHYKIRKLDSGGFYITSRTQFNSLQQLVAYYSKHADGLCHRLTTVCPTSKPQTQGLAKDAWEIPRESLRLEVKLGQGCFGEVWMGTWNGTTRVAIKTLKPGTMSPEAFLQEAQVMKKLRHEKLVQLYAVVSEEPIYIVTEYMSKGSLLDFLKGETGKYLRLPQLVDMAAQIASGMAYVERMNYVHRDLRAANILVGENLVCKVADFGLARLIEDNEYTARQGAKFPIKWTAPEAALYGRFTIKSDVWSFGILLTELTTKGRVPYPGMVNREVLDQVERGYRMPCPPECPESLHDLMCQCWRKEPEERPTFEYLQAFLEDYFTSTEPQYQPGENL
p38 MAPKα, sequence (Q16539 whole entry): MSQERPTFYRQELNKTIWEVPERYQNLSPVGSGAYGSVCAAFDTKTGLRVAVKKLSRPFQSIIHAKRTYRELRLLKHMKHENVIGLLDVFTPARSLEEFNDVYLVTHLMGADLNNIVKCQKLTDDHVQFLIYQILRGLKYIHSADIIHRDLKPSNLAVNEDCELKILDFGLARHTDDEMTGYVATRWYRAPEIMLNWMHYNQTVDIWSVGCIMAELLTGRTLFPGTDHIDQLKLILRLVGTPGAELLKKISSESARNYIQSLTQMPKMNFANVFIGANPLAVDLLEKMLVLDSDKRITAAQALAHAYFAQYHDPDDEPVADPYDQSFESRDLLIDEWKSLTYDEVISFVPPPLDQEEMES

SMILES | IC50 (p38 MAPKα) [nM] | IC50 (c-Src) [nM] | IC50 (d-U937 cells; [3]) [nM] | IC50 (d-U937 cells; [4]) [nM] | IC50 (GSK3α) [nM] | IC50 (PBMCs [1]; [5]) [nM] | IC50 (PBMCs [1]; [6]) [nM] | IC50 (Syk) [nM] | IC50 (PBMCs [2]; [7]) [nM] | IC50 (HT29 cells) [nM] | IC50 (PBMCs [2]; [8]) [nM]
CC(C)(C)c1cc(NC(=O)Nc2ccc(Oc3ccnc(Nc4ccccc4)n3)c3ccccc23)n(-c2ccc(P(C)(C)=O)cc2)n1 [Example 1, 1-(3-(tert-Butyl)-1-(4-(dimethylphosphoryl)phenyl)-1H-pyrazol-5-yl)-3-(4-((2-(phenylamino)pyrimidin-4-yl)oxy)naphthalen-1-yl)urea] | 8 | 15 | 4.9 | 2 | 1280 | 6.9 | 1.3 | 34 | – | – | –
CC(C)(C)c1cc(NC(=O)Nc2ccc(Oc3ccnc(Nc4ccccc4)n3)c3ccccc23)n(-c2cccc(P(C)(C)=O)c2)n1 [Example 2, 1-(3-(tert-Butyl)-1-(3-(dimethylphosphoryl)phenyl)-1H-pyrazol-5-yl)-3-(4-((2-(phenylamino)pyrimidin-4-yl)oxy)naphthalen-1-yl)urea] | – | – | 9.4 | 3.6 | 647 | – | 4.3 | – | – | – | –
COCC(=O)Nc1cc(Oc2ccc(NC(=O)Nc3cc(C(C)(C)C)nn3-c3ccc(P(C)(C)=O)cc3)c3ccccc23)ccn1 [Example 3, N-(4-((4-(3-(3-(tert-Butyl)-1-(4-(dimethylphosphoryl)phenyl)-1H-pyrazol-5-yl)ureido)-naphthalen-1-yl)oxy)pyridin-2-yl)-2-methoxyacetamide] | – | – | 8.6 | 3.6 | 16 | – | 2.5 | – | – | – | –
CC(C)c1cc(NC(=O)Nc2ccc(Oc3ccnc(Nc4ccccc4)n3)c3ccccc23)n(-c2ccc(P(C)(C)=O)cc2)n1 [Example 4, 1-(1-(4-(Dimethylphosphoryl)phenyl)-3-isopropyl-1H-pyrazol-5-yl)-3-(4-((2-(phenylamino)-pyrimidin-4-yl)oxy)naphthalen-1-yl)urea] | – | 12 | – | 19.2 | 220 | 58.9 | 20.8 | – | – | – | –
CC(C)(C)c1cc(NC(=O)Nc2ccc(Oc3ccnc(Nc4ccccc4)c3)c3ccccc23)n(-c2cccc(CP(C)(C)=O)c2)n1 [Example 41, 1-(3-(tert-Butyl)-1-(3-((dimethylphosphoryl)methyl)phenyl)-1H-pyrazol-5-yl)-3-(4-((2-(phenylamino)pyridin-4-yl)oxy)naphthalen-1-yl)urea] | 357 | 56 | – | – | 4300 | 2.8 | – | 96 | 56.4 | 4.7 | –
CC(C)c1cc(NC(=O)Nc2ccc(Oc3ccnc(Nc4ccccc4)c3)c3ccccc23)n(-c2cccc(CP(C)(C)=O)c2)n1 [Example 42, 1-(1-(3-((Dimethylphosphoryl)methyl)phenyl)-3-isopropyl-1H-pyrazol-5-yl)-3-(4-((2-(phenylamino)pyridin-4-yl)oxy)naphthalen-1-yl)urea] | – | 47 | – | – | 6980 | 5.5 | – | 63 | – | 5.6 | –
CC(C)(C)c1cc(NC(=O)Nc2ccc(Oc3ccnc(Nc4ccccc4)c3)c3ccccc23)n(-c2cccc(CP3(=O)CCCC3)c2)n1 [Example 44, 1-(3-(tert-Butyl)-1-(3-((1-oxidophospholan-1-yl)methyl)phenyl)-1H-pyrazol-5-yl)-3-(4-((2-(phenylamino)pyridin-4-yl)oxy)naphthalen-1-yl)urea] | 201 | – | – | – | 8040 | 4 | – | – | – | 7.1 | –
CC(C)c1cc(NC(=O)Nc2ccc(Oc3ccnc(Nc4cc(OCCN5CCOCC5)cc(OC(F)(F)F)c4)n3)c3ccccc23)n(-c2cccc(CP(C)(C)=O)c2)n1 [Example 48, 1-(1-(3-((Dimethylphosphoryl)methyl)phenyl)-3-isopropyl-1H-pyrazol-5-yl)-3-(4-((2-((3-(2-morpholinoethoxy)-5-(trifluoromethoxy)phenyl)amino)pyrimidin-4-yl)oxy)naphthalen-1-yl)urea] | 231 | 87 | – | – | > 10000 | 1.5 | – | 232 | 53.4 | 4.3 | –
CC(C)c1cc(NC(=O)Nc2ccc(Oc3ccnc(Nc4cc(OCCN5CCOCC5)cc(C(F)(F)F)c4)n3)c3ccccc23)n(-c2cccc(CP(C)(C)=O)c2)n1 [Example 49, 1-(1-(3-((Dimethylphosphoryl)methyl)phenyl)-3-isopropyl-1H-pyrazol-5-yl)-3-(4-((2-((3-(2-morpholinoethoxy)-5-(trifluoromethyl)phenyl)amino)pyrimidin-4-yl)oxy)naphthalen-1-yl)urea] | 202 | 95 | – | – | > 10000 | 1.4 | – | 219 | 45.6 | 3.8 | 5.1
CC(C)(C)c1cc(NC(=O)Nc2ccc(Oc3ccnc(Nc4cc(C(=O)NCCN5CCOCC5)cc(C(F)(F)F)c4)n3)c3ccccc23)n(-c2cccc(CP(C)(C)=O)c2)n1 [Example 58, 3-((4-((4-(3-(3-(tert-Butyl)-1-(3-((dimethylphosphoryl)methyl)phenyl)-1H-pyrazol-5-yl)-ureido)naphthalen-1-yl)oxy)pyrimidin-2-yl)amino)-N-(2-morpholinoethyl)-5-(trifluoromethyl)benzamide] | 84 | 7 | – | – | 689 | 1.4 | – | 12 | 62.1 | – | 4.8
CC(C)(C)c1cc(NC(=O)Nc2ccc(Oc3ccnc(Nc4cc(OCCN5CCOCC5)cc(C(F)(F)F)c4)n3)c3ccccc23)n(-c2cccc(CP(C)(C)=O)c2)n1 [Example 61, 1-(3-(tert-Butyl)-1-(3-((dimethylphosphoryl)methyl)phenyl)-1H-pyrazol-5-yl)-3-(4-((2-((3-(2-morpholinoethoxy)-5-(trifluoromethyl)phenyl)amino)pyrimidin-4-yl)oxy)naphthalen-1-yl)urea] | 303 | 14 | – | – | 4190 | 2.3 | – | 24 | 50.7 | 2.6 | 3.3
